Several values for one entry are separate records, joined by “and”; a condition that tells them apart may be missing. Equal entries are not always repeated. Toxic doses and inconclusive results are not listed. Rule for the calls: active = survival T/C of 150% or more; inactive = T/C below 125% in these data.
System: P388 leukemia ip, CD2F1 mice, survival T/C
Test: NCI In Vivo Anticancer Drug Screen. Data for tumor model P388 Leukemia (intraperitoneal) in CD2F1 (CDF1) mice
Conditions: endpoint: median survival time, higher = longer survival
Procedure, shortened: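 Mice carrying the transplanted tumor received test compound or vehicle. Survival was recorded in each group, and the value is the treated-group measurement divided by that of the vehicle-treated control group.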

[1] = dose: 50.0 mg/kg/injection, schedule: Q01DX009 (ip), vehicle: saline with Tween-80
[2] = dose: 200.0 mg/kg/injection, schedule: Q01DX009 (ip), vehicle: saline with Tween-80
[3] = dose: 50.0 mg/kg/injection, schedule: Q01DX009 (ip), vehicle: Klucel (hydroxypropylcellulose) (HPC)
[4] = dose: 100.0 mg/kg/injection, schedule: Q01DX009 (ip), vehicle: Klucel (hydroxypropylcellulose) (HPC)
[5] = dose: 50.0 mg/kg/injection, schedule: Q01DX005 (ip), vehicle: Klucel (hydroxypropylcellulose) (HPC)
[6] = dose: 200.0 mg/kg/injection, schedule: Q01DX005 (ip), vehicle: Klucel (hydroxypropylcellulose) (HPC)
[7] = dose: 50.0 mg/kg/injection, schedule: Q01DX009 (ip), vehicle: saline
[8] = dose: 100.0 mg/kg/injection, schedule: Q01DX009 (ip), vehicle: saline
[9] = dose: 200.0 mg/kg/injection, schedule: Q01DX009 (ip), vehicle: saline

Measured: T/C

O=c1[nH]c(=O)n([C@H]2CCCO2)cc1F
inactive: dose: 44.0 mg/kg/injection, schedule: Q01DX009 (ip), vehicle: Klucel (hydroxypropylcellulose) (HPC) 111 % of control | [1] 104 % of control | dose: 59.0 mg/kg/injection, schedule: Q01DX009 (ip), vehicle: Klucel (hydroxypropylcellulose) (HPC) 114 % of control | dose: 90.0 mg/kg/injection, schedule: Q01DX009 (ip), vehicle: Klucel (hydroxypropylcellulose) (HPC) 124 % of control | dose: 142.0 mg/kg/injection, schedule: Q04DX003 (ip), vehicle: Klucel (hydroxypropylcellulose) (HPC) 109 % of control | dose: 189.0 mg/kg/injection, schedule: Q04DX003 (ip), vehicle: Klucel (hydroxypropylcellulose) (HPC) 115 % of control | [2] 93 % of control | dose: 201.0 mg/kg/injection, schedule: Q01DX009 (ip), vehicle: Klucel (hydroxypropylcellulose) (HPC) 95 % of control | dose: 316.0 mg/kg/injection, schedule: Q01DX001 (ip), vehicle: Klucel (hydroxypropylcellulose) (HPC) 107 % of control | dose: 421.0 mg/kg/injection, schedule: Q01DX001 (ip), vehicle: Klucel (hydroxypropylcellulose) (HPC) 115 % of control | dose: 641.0 mg/kg/injection, schedule: Q01DX001 (ip), vehicle: Klucel (hydroxypropylcellulose) (HPC) 120 % of control | dose: 645.0 mg/kg/injection, schedule: Q04DX003 (ip), vehicle: Klucel (hydroxypropylcellulose) (HPC) 120 % of control

CC12CC3(Br)CC(Br)(C1)CC(CC(=O)O)(C2)C3
inactive: [3] 103 % of control | [4] 112 % of control | dose: 200.0 mg/kg/injection, schedule: Q01DX009 (ip), vehicle: Klucel (hydroxypropylcellulose) (HPC) 112 % of control

O=C1CSC(c2ccccc2Cl)N1c1nncs1 (stereo unspecified)
inactive: dose: 60.0 mg/kg/injection, schedule: Q01DX005 (ip), vehicle: saline with Tween-80 103 % of control | dose: 120.0 mg/kg/injection, schedule: Q01DX005 (ip), vehicle: saline with Tween-80 98 % of control | dose: 240.0 mg/kg/injection, schedule: Q01DX005 (ip), vehicle: saline with Tween-80 104 % of control

COc1ccc(C(=O)N2C(=O)CCC2=O)cc1
inactive: [3] 109 % of control | [4] 115 % of control | dose: 100.0 mg/kg/injection, schedule: Q04DX003 (ip), vehicle: Klucel (hydroxypropylcellulose) (HPC) 113 % of control | dose: 200.0 mg/kg/injection, schedule: Q04DX003 (ip), vehicle: Klucel (hydroxypropylcellulose) (HPC) 113 % of control | dose: 400.0 mg/kg/injection, schedule: Q04DX003 (ip), vehicle: Klucel (hydroxypropylcellulose) (HPC) 114 % of control

O=C(NC(Cc1ccc(Br)cc1)C(=O)O)c1ccc(Cl)cc1 (stereo unspecified)
inactive: [5] 100 % of control | dose: 100.0 mg/kg/injection, schedule: Q01DX005 (ip), vehicle: Klucel (hydroxypropylcellulose) (HPC) 100 % of control | [6] 102 % of control

CC1(CCl)CC(=O)N1C(N)=O (stereo unspecified)
inactive: [7] 96 % of control | [8] 104 % of control | [9] 105 % of control

CN(C)c1ccc(C(N)=O)cn1
inactive: dose: 1.56 mg/kg/injection, schedule: Q01DX009 (ip), vehicle: saline with Tween-80 109 % of control | dose: 6.25 mg/kg/injection, schedule: Q01DX009 (ip), vehicle: saline with Tween-80 90 % of control | dose: 12.5 mg/kg/injection, schedule: Q04DX003 (ip), vehicle: saline with Tween-80 109 % of control | dose: 25.0 mg/kg/injection, schedule: Q04DX003 (ip), vehicle: saline with Tween-80 118 % of control | dose: 50.0 mg/kg/injection, schedule: Q04DX003 (ip), vehicle: saline with Tween-80 118 % of control

COc1cc(/C=C/C(=O)NCCc2c[nH]c3ccc(O)cc23)ccc1O
inactive: dose: 6.25 mg/kg/injection, schedule: Q01DX005 (ip), vehicle: Klucel (hydroxypropylcellulose) (HPC) 96 % of control | dose: 12.5 mg/kg/injection, schedule: Q01DX005 (ip), vehicle: Klucel (hydroxypropylcellulose) (HPC) 95 % of control | dose: 25.0 mg/kg/injection, schedule: Q01DX005 (ip), vehicle: Klucel (hydroxypropylcellulose) (HPC) 87 % of control and 90 % of control | [5] 88 % of control | [6] 88 % of control

OCC1OC(OC2C3CSC(O3)C(O)C2O)C(O)C(O)C1O (stereo unspecified)
inactive: [7] 105 % of control | [8] 106 % of control | [9] 106 % of control

COc1ccc2nc(-c3ccccc3)cc(C(=O)/C=C/c3ccc(N(C)C)cc3)c2c1
inactive: dose: 50.0 mg/kg/injection, schedule: Q01DX005 (ip), vehicle: saline with Tween-80 89 % of control | dose: 100.0 mg/kg/injection, schedule: Q01DX005 (ip), vehicle: saline with Tween-80 86 % of control | dose: 200.0 mg/kg/injection, schedule: Q01DX005 (ip), vehicle: saline with Tween-80 89 % of control

CCc1c(O)c(C(C)=O)c(S)[nH]c1=O
inactive: dose: 60.0 mg/kg/injection, schedule: Q01DX005 (ip), vehicle: Klucel (hydroxypropylcellulose) (HPC) 101 % of control and 88 % of control | dose: 120.0 mg/kg/injection, schedule: Q01DX005 (ip), vehicle: Klucel (hydroxypropylcellulose) (HPC) 102 % of control | dose: 240.0 mg/kg/injection, schedule: Q01DX005 (ip), vehicle: Klucel (hydroxypropylcellulose) (HPC) 114 % of control and 87 % of control

CC(=N\O)/C(=N\O)C(=O)c1ccccc1
inactive: [1] 95 % of control | dose: 100.0 mg/kg/injection, schedule: Q01DX009 (ip), vehicle: saline with Tween-80 90 % of control | [2] 90 % of control
